# Source: patent US20220016215A1, “GIP RECEPTOR AGONIST PEPTIDE COMPOUNDS AND USES THEREOF” (TAKEDA PHAARMACEUTICAL COMPANY LIMITED, priority 2018, published 2022)
# Marks after values point to notes of the source that are not given here. Non-standard residues stand in square brackets, D forms with d. Groups on a side chain read outwards from the residue. No end group written: not given here. *: point of attachment. C15 diacid = O=C(O)CCCCCCCCCCCCCC(=O)*; Palmitoyl = CCCCCCCCCCCCCCCC(=O)*; Aib = CC(C)(N)C(=O)O
# T1: human GIPR (human, UniProt P48546 22-466)
# T1 sequence (looked up): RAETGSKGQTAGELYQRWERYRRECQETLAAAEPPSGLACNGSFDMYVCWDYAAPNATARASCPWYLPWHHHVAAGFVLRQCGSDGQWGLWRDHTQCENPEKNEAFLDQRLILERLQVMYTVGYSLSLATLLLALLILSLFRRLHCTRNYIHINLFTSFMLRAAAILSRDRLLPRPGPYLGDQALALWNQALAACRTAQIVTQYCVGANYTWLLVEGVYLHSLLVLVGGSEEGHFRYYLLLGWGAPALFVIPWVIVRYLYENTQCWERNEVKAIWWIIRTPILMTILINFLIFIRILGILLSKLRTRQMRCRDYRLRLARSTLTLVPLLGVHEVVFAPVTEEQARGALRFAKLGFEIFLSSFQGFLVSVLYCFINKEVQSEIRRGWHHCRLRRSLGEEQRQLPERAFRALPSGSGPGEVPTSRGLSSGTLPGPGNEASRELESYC
# B1: Compound No. 24 (peptide)
# peptide: Y[Aib]EGTFISDYSIALDKIHQQK([ethylene glycol-ethylene glycol-C15 diacid])FVNWLLAQRG-OH
# B2: Compound No. 4 (peptide)
# peptide: Y[dA]EGTFISDYSIAMDKIHQQDFVNWLLAQK-OH
# B3: Compound No. 25 (peptide)
# peptide: Y[Aib]EGTFISDYSIALDKIK([ethylene glycol-ethylene glycol-C15 diacid])QQDFVNWLLAQRG-OH
# B4: Compound No. 19 (peptide)
# peptide: YXEGTFISDYSIAMDKIHQQDFVNWLLAQKGKKNDWKHNITQK
# modifications: Aib at 2; Lys-(gamma-glutamic acid)3-palmitoyl at 43; C-terminal -OH
# B5: Compound No. 3 (peptide)
# peptide: YAEGTFISDYSIAMDKIHQQDFVNWLLAQKGKKNDWKHNIIQ
# modifications: Lys-(palmitoyl acyl fatty acid acyl) at 16; C-terminal -NH2
# B6: Compound No. 31 (peptide)
# peptide: Y[Aib]EGTFISDYSIALDKIHQQDFVNWLLAQK([ethylene glycol-ethylene glycol-C15 diacid])G-OH
# B7: Compound No. 1 (peptide)
# peptide: Ac-YAEGTFISDYSIAMDKIHQQDFVNWLLAQKGKKNDWKHNIIQ-OH
# B8: Compound No. 2 (peptide)
# peptide: Y[dA]EGTFISDYSIAMDKIHQQDFVNWLLAQKGKKNDWK(Palmitoyl)HNIIQ-NH2
# B9: Compound No. 28 (peptide)
# peptide: Y[Aib]EGTFISDYSIALDKIHQQK([ethylene glycol-ethylene glycol-C15 diacid])FVNWLLAQR-NH2
# What was measured:
# [1] = test system: morphine (0.6 mg/kg, s.c.)-induced emesis in ferrets; assay: Morphine-induced acute emetic model in male ferrets; format: in vivo, ferret; conditions: for Emesis: Duration / Emesis: Frequency / Emesis: No. of animals (responder/used) / Fidget: Duration / Fidget: Frequency / Fidget: No. of animals (responder/used) / Licking: Duration / Licking: Frequency / Licking: No. of animals (responder/used) / Retching: Duration / Retching: Frequency / Retching: No. of animals (responder/used) / Vomiting: Duration / Vomiting: Frequency / Vomiting: No. of animals (responder/used) / Emesis: Latency / Fidget: Latency / Licking: Latency / Retching: Latency / Vomiting: Latency: morphine 0.6 mg/kg s.c. 0.5 h after drug, 106-[…] s.c. (30 nmol/kg); for Emesis: Latency / Fidget: Latency / Licking: Latency / Retching: Latency / Vomiting: Latency: non-responders counted as 30 min; for Attenuation of morphine-induced emesis (in words) / Comment: Anti-Emetic Activity (inhibition) on morphine-induced emesis: male ferrets; for Attenuation of morphine-induced emesis (in words): 30 nmol/kg s.c. 30 minutes before morphine 0.6 mg/kg s.c.; for Comment: Anti-Emetic Activity (inhibition) on morphine-induced emesis: summary of the morphine experiments
# Description: Example 6—In-Vivo Effect of GIP Receptor Agonist Peptides on Emesis in Morphine Induced Emesis Model in Live Male Ferrets
# Effect of subcutaneously administered GIP receptor agonist peptide in morphine-induced acute emetic model.
# To evaluate the antiemetic effect, the GIP receptor agonist peptides other than natural human GIP were subcutaneously administered into male ferrets 30 minutes before morphine administration. […]. Up to 60 minutes after morphine administration, the condition of the ferrets was monitored to record the frequencies and time points of abdominal contraction motions, vomiting behaviors, licking with the tongue, and fidgety behavior occurring
# Effects of Subcutaneously Administered GIP Receptor Agonist Peptides in Morphine-Induced Acute Emetic Model
# 30 nmol/kg of Compounds 3 and 5 were dissolved with a vehicle (0.09 w/v % tween 80/10% DMSO/saline), respectively, to prepare test solutions. […] of the test solutions and the vehicle were subcutaneously administered to ferrets (4 in each group), respectively. At the time of each of 4 hours, after administration, 0.6 mg/kg of morphine was subcutaneously administered. […] See results in Tables 6, 7 and 8.
# (§1) 10 nmol/kg of each compound dissolved with a vehicle (0.09 w/v % tween 80/10% DMSO/saline) respectively, to prepare test solutions. […] of the test solutions and the vehicle were subcutaneously administered to ferrets (4 in each group), respectively. At the time of each of 4 hours, or 120 hours after administration, 0.6 mg/kg of morphine was subcutaneously administered. Up to 360 minutes after morphine administration, the condition of the ferrets was monitored to record the frequencies and time points of abdominal contraction motions, vomiting behaviors, licking with the tongue, and fidgety behavior occurring.
# as §1, with “30 nmol/kg” for “10 nmol/kg”, “80/10% DMSO/saline),respectively,” for “80/10% DMSO/saline) respectively,”
# human GIPR = target: T1, human GIPR; assay: cell-based or functional assay
# human GLP-1R = human GLP-1R (human, UniProt P43220 24-463); assay: cell-based or functional assay
molecule,measurement,setting,value
Ac-(D-Tyr)AEGTFISDYSIAMDAIHQQDFVNWLLAQLys-(palmitoyl acyl fatty acid)-NH2 (Ac-[dY]AEGTFISDYSIAMDAIHQQDFVNWLLAQK(Palmitoyl)-NH2; SMILES CCCCCCCCCCCCCCCC(=O)NCCCC[C@H](NC(=O)[C@H](CCC(N)=O)NC(=O)[C@H](C)NC(=O)[C@H](CC(C)C)NC(=O)[C@H](CC(C)C)NC(=O)[C@H](Cc1c[nH]c2ccccc12)NC(=O)[C@H](CC(N)=O)NC(=O)[C@@H](NC(=O)[C@H](Cc1ccccc1)NC(=O)[C@H](CC(=O)O)NC(=O)[C@H](CCC(N)=O)NC(=O)[C@H](CCC(N)=O)NC(=O)[C@H](Cc1c[nH]cn1)NC(=O)[C@@H](NC(=O)[C@H](C)NC(=O)[C@H](CC(=O)O)NC(=O)[C@H](CCSC)NC(=O)[C@H](C)NC(=O)[C@@H](NC(=O)[C@H](CO)NC(=O)[C@H](Cc1ccc(O)cc1)NC(=O)[C@H](CC(=O)O)NC(=O)[C@H](CO)NC(=O)[C@@H](NC(=O)[C@H](Cc1ccccc1)NC(=O)[C@@H](NC(=O)CNC(=O)[C@H](CCC(=O)O)NC(=O)[C@H](C)NC(=O)[C@@H](Cc1ccc(O)cc1)NC(C)=O)[C@@H](C)O)[C@@H](C)CC)[C@@H](C)CC)[C@@H](C)CC)C(C)C)C(N)=O) [Compound 7],Ferrets in which the vomiting symptom was observed (in words),"[1]; ferrets, morphine administered 4 hours after administration",all of the 4 ferrets
CC[C@H](C)[C@H](NC(=O)[C@H](CO)NC(=O)[C@H](Cc1ccc(O)cc1)NC(=O)[C@H](CC(=O)O)NC(=O)[C@H](CO)NC(=O)[C@@H](NC(=O)[C@H](Cc1ccccc1)NC(=O)[C@@H](NC(=O)CNC(=O)[C@H](CCC(=O)O)NC(=O)[C@@H](C)NC(=O)[C@@H](N)Cc1ccc(O)cc1)[C@@H](C)O)[C@@H](C)CC)C(=O)N[C@@H](C)C(=O)N[C@@H](CCSC)C(=O)N[C@@H](CC(=O)O)C(=O)N[C@@H](CCCCN)C(=O)N[C@H](C(=O)N[C@@H](Cc1c[nH]cn1)C(=O)N[C@@H](CCC(N)=O)C(=O)N[C@@H](CCC(N)=O)C(=O)N[C@@H](CC(=O)O)C(=O)N[C@@H](Cc1ccccc1)C(=O)N[C@H](C(=O)N[C@@H](CC(N)=O)C(=O)N[C@@H](Cc1c[nH]c2ccccc12)C(=O)N[C@@H](CC(C)C)C(=O)N[C@@H](CC(C)C)C(=O)N[C@@H](C)C(=O)N[C@@H](CCC(N)=O)C(=O)N[C@@H](CCCCN)C(=O)O)C(C)C)[C@@H](C)CC [Compound 4],Emesis: Duration,[1]; ferrets,0.0 ± 0.0 min
same,Emesis: Frequency,[1]; ferrets,0.0 ± 0.0
same,Emesis: No. of animals (responder/used),[1]; ferrets,0/4 #
same,Fidget: Duration,[1]; ferrets,0.0 ± 0.0 min
same,Fidget: Frequency,[1]; ferrets,0.0 ± 0.0
same,Fidget: No. of animals (responder/used),[1]; ferrets,0/4
same,Licking: Duration,[1]; ferrets,0.0 ± 0.0 min
same,Licking: Frequency,[1]; ferrets,0.0 ± 0.0
same,Licking: No. of animals (responder/used),[1]; ferrets,0/4 #
same,Retching: Duration,[1]; ferrets,0.0 ± 0.0 min
same,Retching: Frequency,[1]; ferrets,0.0 ± 0.0
same,Retching: No. of animals (responder/used),[1]; ferrets,0/4 #
same,Vomiting: Duration,[1]; ferrets,0.0 ± 0.0 min
same,Vomiting: Frequency,[1]; ferrets,0.0 ± 0.0
same,Vomiting: No. of animals (responder/used),[1]; ferrets,0/4
same,Emesis: Latency,[1]; ferrets,30.0 ± 0.0 min
same,Fidget: Latency,[1]; ferrets,30.0 ± 0.0 min
same,Licking: Latency,[1]; ferrets,30.0 ± 0.0 min
same,Retching: Latency,[1]; ferrets,30.0 ± 0.0 min
same,Vomiting: Latency,[1]; ferrets,30.0 ± 0.0 min
same,Attenuation of morphine-induced emesis (in words),[1],completely attenuated
same,Comment: Anti-Emetic Activity (inhibition) on morphine-induced emesis,[1],100% inhibition
CC[C@H](C)[C@H](NC(=O)[C@H](CO)NC(=O)[C@H](Cc1ccc(O)cc1)NC(=O)[C@H](CC(=O)O)NC(=O)[C@H](CO)NC(=O)[C@@H](NC(=O)[C@H](Cc1ccccc1)NC(=O)[C@@H](NC(=O)CNC(=O)[C@H](CCC(=O)O)NC(=O)[C@@H](C)NC(=O)[C@@H](N)Cc1ccc(O)cc1)[C@@H](C)O)[C@@H](C)CC)C(=O)N[C@@H](C)C(=O)N[C@@H](CCSC)C(=O)N[C@@H](CC(=O)O)C(=O)N[C@@H](CCCCN)C(=O)N[C@H](C(=O)N[C@@H](Cc1c[nH]cn1)C(=O)N[C@@H](CCC(N)=O)C(=O)N[C@@H](CCC(N)=O)C(=O)N[C@@H](CC(=O)O)C(=O)N[C@@H](Cc1ccccc1)C(=O)N[C@H](C(=O)N[C@@H](CC(N)=O)C(=O)N[C@@H](Cc1c[nH]c2ccccc12)C(=O)N[C@@H](CC(C)C)C(=O)N[C@@H](CC(C)C)C(=O)N[C@@H](C)C(=O)N[C@@H](CCC(N)=O)C(=O)N[C@@H](CCCCN)C(=O)N1CCC[C@H]1C(=O)N[C@@H](CO)C(=O)N[C@@H](CO)C(=O)NCC(=O)N[C@@H](C)C(=O)N1CCC[C@H]1C(=O)N1CCC[C@H]1C(=O)N1CCC[C@H]1C(=O)N[C@@H](CO)C(N)=O)C(C)C)[C@@H](C)CC [Compound 11],Emesis: Duration,[1]; ferrets,0.0 ± 0.0 min
same,Emesis: Frequency,[1]; ferrets,0.0 ± 0.0
same,Emesis: No. of animals (responder/used),[1]; ferrets,0/4 #
same,Fidget: Duration,[1]; ferrets,0.0 ± 0.0 min
same,Fidget: Frequency,[1]; ferrets,0.0 ± 0.0
same,Fidget: No. of animals (responder/used),[1]; ferrets,0/4
same,Licking: Duration,[1]; ferrets,0.0 ± 0.0 min
same,Licking: Frequency,[1]; ferrets,0.0 ± 0.0
same,Licking: No. of animals (responder/used),[1]; ferrets,0/4 #
same,Retching: Duration,[1]; ferrets,0.0 ± 0.0 min
same,Retching: Frequency,[1]; ferrets,0.0 ± 0.0
same,Retching: No. of animals (responder/used),[1]; ferrets,0/4 #
same,Vomiting: Duration,[1]; ferrets,0.0 ± 0.0 min
same,Vomiting: Frequency,[1]; ferrets,0.0 ± 0.0
same,Vomiting: No. of animals (responder/used),[1]; ferrets,0/4
same,Emesis: Latency,[1]; ferrets,30.0 ± 0.0 min
same,Fidget: Latency,[1]; ferrets,30.0 ± 0.0 min
same,Licking: Latency,[1]; ferrets,30.0 ± 0.0 min
same,Retching: Latency,[1]; ferrets,30.0 ± 0.0 min
same,Vomiting: Latency,[1]; ferrets,30.0 ± 0.0 min
same,Attenuation of morphine-induced emesis (in words),[1],completely attenuated
same,Comment: Anti-Emetic Activity (inhibition) on morphine-induced emesis,[1],100% inhibition
B1,GIPR EC50 nM (A),human GIPR,< 0.001 nM
B2,GLP1R EC50 nM (B),human GLP-1R,355 nM
same,GLP1R pEC50,human GLP-1R,6.5
B3,GIPR EC50 nM (A),human GIPR,< 0.001 nM
same,GLP1R EC50 nM (B),human GLP-1R,> 1000 nM
same,GLP1R pEC50,human GLP-1R,< 8
B4,GLP1R pEC50,human GLP-1R,8.26
B5,GIPR EC50 nM (A),human GIPR,0.331 nM
same,GIPR pEC50,human GIPR,9.5
same,GLP1R EC50 nM (B),human GLP-1R,148 nM
same,GLP1R pEC50,human GLP-1R,6.8
B6,GIPR EC50 nM (A),human GIPR,0.002 nM
B7,GIPR EC50 nM (A),human GIPR,0.01 nM
same,GIPR pEC50,human GIPR,11
same,GLP1R EC50 nM (B),human GLP-1R,302 nM
same,GLP1R pEC50,human GLP-1R,6.5
B8,GLP1R EC50 nM (B),human GLP-1R,5 nM
same,GLP1R pEC50,human GLP-1R,8.3
B9,GIPR EC50 nM (A),human GIPR,< 0.001 nM
